Data: publication PMC4775402 (Pharmacological research, 2016)

How the values were obtained:
ΔPDZ C3AR1 = ΔPDZ C3AR1 (Homo sapiens, UniProt Q16581); assay: Label-free DMR agonist response, HEK293T expressing ΔPDZ C3AR1; type: cell-based
WT C3AR1 = WT C3AR1 (Homo sapiens, UniProt Q16581); assay: Label-free DMR agonist response, HEK293T expressing WT C3AR1; type: cell-based
WT S1PR2 = WT S1PR2 (Homo sapiens, UniProt O95136); assay: Label-free DMR agonist response, HEK293T expressing WT S1PR2; type: cell-based
Sequence of WT S1PR2 (O95136 whole entry): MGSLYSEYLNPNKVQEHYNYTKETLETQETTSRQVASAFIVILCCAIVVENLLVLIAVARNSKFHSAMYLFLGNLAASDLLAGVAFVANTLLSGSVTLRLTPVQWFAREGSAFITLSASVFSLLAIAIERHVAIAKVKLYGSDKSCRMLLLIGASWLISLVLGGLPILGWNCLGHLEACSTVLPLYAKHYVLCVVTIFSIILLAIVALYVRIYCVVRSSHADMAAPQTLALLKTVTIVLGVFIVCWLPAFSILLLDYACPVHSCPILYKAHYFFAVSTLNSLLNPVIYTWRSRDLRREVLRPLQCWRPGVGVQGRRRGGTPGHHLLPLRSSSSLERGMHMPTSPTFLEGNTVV

ΔPDZ S1PR2 = ΔPDZ S1PR2 (Homo sapiens, UniProt O95136); assay: Label-free DMR agonist response, HEK293T expressing ΔPDZ S1PR2; type: cell-based
Sequence of ΔPDZ S1PR2 (O95136 1-349 limits assumed, stated change not applied): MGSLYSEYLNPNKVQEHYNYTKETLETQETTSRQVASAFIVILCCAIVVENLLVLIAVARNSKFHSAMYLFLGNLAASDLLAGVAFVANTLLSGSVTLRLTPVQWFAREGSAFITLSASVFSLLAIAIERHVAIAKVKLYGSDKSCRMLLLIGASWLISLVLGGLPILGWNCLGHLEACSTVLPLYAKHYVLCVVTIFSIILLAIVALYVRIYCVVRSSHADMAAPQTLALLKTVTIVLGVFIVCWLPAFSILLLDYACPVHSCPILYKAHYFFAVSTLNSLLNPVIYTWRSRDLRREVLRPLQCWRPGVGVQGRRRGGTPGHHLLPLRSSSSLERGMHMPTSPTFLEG

ΔPDZ ADRA1D = details: cited from earlier work
WT ADRA1D = details: cited from earlier work

Sequence of WT C3AR1 (Q16581 whole entry): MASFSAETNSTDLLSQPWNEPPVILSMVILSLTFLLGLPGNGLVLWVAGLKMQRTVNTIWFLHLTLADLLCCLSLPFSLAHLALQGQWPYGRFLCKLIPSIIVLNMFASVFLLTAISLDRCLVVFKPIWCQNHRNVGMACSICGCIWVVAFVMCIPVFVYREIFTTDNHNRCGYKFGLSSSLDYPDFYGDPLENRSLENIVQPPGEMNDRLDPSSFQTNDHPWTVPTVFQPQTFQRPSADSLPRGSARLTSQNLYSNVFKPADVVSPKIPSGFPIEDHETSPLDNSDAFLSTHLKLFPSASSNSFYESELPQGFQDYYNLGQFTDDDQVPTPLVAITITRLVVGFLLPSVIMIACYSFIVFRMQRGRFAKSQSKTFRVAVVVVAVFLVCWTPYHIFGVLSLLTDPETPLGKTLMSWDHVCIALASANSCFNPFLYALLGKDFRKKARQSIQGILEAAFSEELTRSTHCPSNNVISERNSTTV
Sequence of ΔPDZ C3AR1 (Q16581 1-478 limits assumed, stated change not applied): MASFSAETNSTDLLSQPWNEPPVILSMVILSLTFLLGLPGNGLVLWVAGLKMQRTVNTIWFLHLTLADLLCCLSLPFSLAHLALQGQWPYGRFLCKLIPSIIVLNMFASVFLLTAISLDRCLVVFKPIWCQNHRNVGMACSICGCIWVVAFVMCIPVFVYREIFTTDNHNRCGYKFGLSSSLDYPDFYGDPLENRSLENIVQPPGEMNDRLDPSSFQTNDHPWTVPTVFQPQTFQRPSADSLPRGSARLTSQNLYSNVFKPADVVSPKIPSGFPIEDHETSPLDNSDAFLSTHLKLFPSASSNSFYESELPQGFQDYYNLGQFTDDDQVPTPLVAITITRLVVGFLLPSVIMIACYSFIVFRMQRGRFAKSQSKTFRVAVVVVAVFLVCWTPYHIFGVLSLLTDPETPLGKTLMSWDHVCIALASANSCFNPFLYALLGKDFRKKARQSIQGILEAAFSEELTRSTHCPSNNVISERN

## NC(=O)Cc1ccccc1 [Benzeneacetamide, benzeneacetamide]
ΔPDZ C3AR1; ΔPDZ C3AR1, maximal agonist DMR response
  ΔPDZ Max (DMR): 38.77 ± 2.59
ΔPDZ C3AR1; ΔPDZ C3AR1, time to peak DMR
  ΔPDZ TTP: 3.50 s
WT C3AR1; WT C3AR1, maximal agonist DMR response
  WT Max (DMR): 36.90 ± 1.82
WT C3AR1; WT C3AR1, time to peak DMR
  WT TTP: 4.50 s

## CCCCCCCCCCCCC/C=C/[C@@H](O)[C@@H](N)COP(=O)(O)O [Sphingosine-1-phosphate, sphingosine-1-phosphate]
WT S1PR2; WT S1PR2, maximal agonist DMR response
  WT Max (DMR): −40.54 ± 3.76
WT S1PR2; WT S1PR2, time to peak DMR
  WT TTP: 17.61 s
ΔPDZ S1PR2; ΔPDZ S1PR2, maximal agonist DMR response
  ΔPDZ Max (DMR): −10.16 ± 4.91
ΔPDZ S1PR2; ΔPDZ S1PR2, time to peak DMR
  ΔPDZ TTP: 16.31 s

## CNC[C@H](O)c1cccc(O)c1 [phenylephrine]
ΔPDZ ADRA1D
  activation, DMR (in words): weak activation
WT ADRA1D; ADRA1D with overexpression of SCRIB alone
  enhancement of the DMR response: ~5 fold
WT ADRA1D; WT ADRA1D
  activation, DMR (in words): weak activation
